Square brackets hold non-standard residues; d marks the D form. Ends that are not written are not given here.
Test system: normotensive Sprague-Dawsley rats
Assay: In vivo activity: blood pressure and heart rate after intravenous dosing in catheterised rats
Parameters: species or system rat
Experimental: Male Sprague-Dawley rats obtained from Charles River Laboratories, Wilmington, Mass., and weighing 276-300 g, were group housed at 22° C. and kept on 12 hour light/dark cycle. Food and water were provided ad lib.
Animals were anesthetized with sodium pentobarbital (65 mg/kg) and under sterile conditions a one-inch incision was made in the fold of the left leg to expose the femoral blood vessels. Two lengths of PE-50 tubing filled with 10% heparin were inserted into the left femoral artery and left femoral vein for measurement of blood pressure and for drug delivery, respectively. The tubings were tunneled under the skin and exposed through the mid-scapular region. Animals were allowed at least 24 hours recovery prior to experiments.
A force transducer (Spectramed Model P23XL, Grass Instruments, Quincy, Mass., USA), and tachograph (Model 7P44D, Grass Instruments) was used for recording of systolic and diastolic pressures and heart rate from the femoral artery catheter. Patency of catheters was verified by flushing with either saline or 10% heparin.
A dose of either 30, 100, 500, 800 or 1000 nM/kg ([…]) of NPY27-36 (D-Tyr^27,36, D-Thr^32) (prepared as described in Example 1 above), or saline was delivered to the animal via the catheter in the left femoral vein. Changes in systolic and diastolic pressures and heart rater were recorded from the catheter in the left femoral artery over a 10 minute time interval.

[1] = given intraveneously, doses 30-1000 nM/kg, recorded over 10 minutes, normotensive rats

[dY]INLI[dT]RQR[dY]-NH2 [NPY27-36 (D-Tyr^27,36, D-Thr^32)]
changes in mean arterial pressure and heart rate vs saline (dose 30 nM/kg i.v.): failed to produce changes that were significantly different from saline treatment
changes in mean arterial pressure and heart rate vs saline (dose 100 nM/kg i.v.): failed to produce changes that were significantly different from saline treatment
mean arterial pressure vs saline-treated controls (dose 500 nM/Kg i.v.): significantly different decreases
heart rate vs saline controls (dose 500 nM/kg i.v.): significantly different increases
mean arterial pressure vs saline-treated controls (dose 800 nM/Kg i.v.): significantly different decreases
mean arterial pressure vs saline-treated controls (dose 1000 nM/Kg i.v.): significantly different decreases
heart rate vs saline controls (dose 1000 nM/kg i.v.): significantly different increases
heart rate [1]: increase
mean arterial pressure [1]: dose-dependent decrease
